Earlier results as cited in patent publication US20020010148A1, “Oral combinations of hydroxocobalamin and folic acid” (priority 1999, published 2002).

Tests used:
homocysteine levels = conditions: 0.4 mg hydroxocobalamin alone or with 0.5 mg/day or 5 mg/day folic acid, oral
vitamin B12 deficiency = conditions: oral 1-2 mg/day; patients with pernicious anaemia
[1] = oral doses of 1 mg or more; without intrinsic factor; dose-dependent

Compound: C/C1=C2/[N-][C@H]([C@H](CC(N)=O)[C@@]2(C)CCC(=O)NC[C@@H](C)OP(=O)([O-])O[C@H]2[C@@H](O)[C@@H](n3cnc4cc(C)c(C)cc43)O[C@@H]2CO)[C@]2(C)N=C(/C(C)=C3N=C(/C=C4N=C1[C@@H](CCC(N)=O)C\4(C)C)[C@@H](CCC(N)=O)[C@]\3(C)CC(N)=O)[C@@H](CCC(N)=O)[C@]2(C)CC(N)=O.[Co+3].[OH-] [hydroxocobalamin]
- contribution to lowering of homocysteine levels (homocysteine levels): contributed little

Compound: Nc1nc2ncc(CNc3ccc(C(=O)N[C@@H](CCC(=O)O)C(=O)O)cc3)nc2c(=O)[nH]1 [folic acid]
- contribution to lowering of homocysteine levels (homocysteine levels): main effect

Compound: cyanocobalamin
- adequacy of oral dosing to provide vitamin B12 (vitamin B12 deficiency): fully adequate

Compound: Vitamin B12
- passive absorption, share of the oral dose [1]: 1-2%
